# Laboratory results as given in patent US11039618B2, “Metam salts and polysulfide soil treatment” (Tessenderlo Kerley, Inc, priority 2016, dated 2021).
# Experiments:
# Pythium = experiment: Example 6: Pythium population in treated farm soil samples; format: cell-based; conditions: soil from another location; average over rates: LSS 45 and 90 gal/acre; metam sodium 20 and 40 gal/acre; combination 20 and 40 gal metam with 45 gal LSS; untreated 150
# Procedure: Soil from a farm located in Washington state was treated with various solutions, and subsequently the population of Verticillium in treated samples were determined. Untreated samples contained 31 CFU per gram of dry soil. Soil treated with 90 gallons per acre liquid lime sulfur (276 pounds/acre or 309 kg/ha of calcium polysulfide) had less than 2 CFU per gram of dry soil. […] Samples treated with 170 pounds of metam sodium per acre and with a mixture of 138 pounds calcium polysulfide and 170 pounds of metam sodium per acre had about 70 to 80 CFU per gram of dry soil. […] The reason is not understood, and may reflect test protocols.
# Clearly the test protocol and/or sample variability were over-riding factors. In tests on soil from another location, untreated soil had 150 CFU Pythium per gram of dry soil.
# Verticillium [1] = experiment: Example 6: Verticillium population in treated farm soil samples; format: cell-based; conditions: soil from another location
# V. dahliae = experiment: Field test near Moses Lake, Wash.: V. dahliae colonies in soil after shank treatment; set-up: species or system Verticillium dahliae; conditions: average of three sample sites, metam sodium 191 pounds/acre, calcium polysulfide 276 pounds/acre
# Procedure: (§1) A field test was performed in small plots in a grower's location in near Moses Lake, Wash. using commercial equipment, shanking the product 8-9 inches into the ground, in February 2016. A few treated areas were sampled a few months after treatment. This field is believed to be low in pest pressure. […] The mixture is compatible as a ground application, including using standard tanks, hoses, nozzles, and shanks. It is believed the product will also be stable when added to water to form a dilute product, due to the sodium or potassium hydroxide in metam. Therefore, alkali sulfide salts need not be added.
# (§2) Location 1 was treated with 45 gallons per acre of Sectagon®, the metam sodium solution, equivalent to 191 pounds metam sodium per acre. This is considered a standard treatment protocol. Section 2 was treated with only liquid lime sulfur, at 90 gallons per acre (276 pounds calcium polysulfide/acre). Section 3 was treated with 30 gallons per acre Sectagon® and 30 gallons per acre liquid lime sulfur (92 pounds calcium polysulfide and 127 pounds metam sodium per acre). The treatment chemicals were obtained from Tessenderlo Kerley. A sufficient time following the treatments, V. dahliae concentrations and black dot concentrations were determined at 4 inches depth and at 8 inches depth at three random sample sites in each treated plot. No controls were run, and the variability in samples were high. […]
# Verticillium [2] = experiment: Jar test 2015: Verticillium microsclerotia colonies in treated soil (soil moisture 35% w/w); format: cell-based, Verticillium dahliae; conditions: Metam 68 gal/acre (323 kg active/ha)
# Procedure: These investigations were performed under laboratory conditions in an initial jar test. We also investigated the pathogen control efficacy of LSS treatments, at 30 gal/acre (90 pounds/acre or 101 Kg/ha of calcium polysulfide) and at 90 gal/acre (276 pounds/acre or 310 Kg/ha of calcium polysulfide), and combined Metam/LSS treatments using Sectagon® brand metam at 20 gal/acre Metam (84 pounds/acre or 94 Kg/ha of metam sodium) with 40 gal/acre LSS (122 pounds/acre or 138 Kg/ha of calcium polysulfide); and at 30 gal/acre Metam (126 pounds/acre or […] of metam sodium) with 20 gal/acre LSS (60 pounds/acre or 67 kg/ha of calcium polysulfide). […] This may be due to lower water saturation in the 2016 tests compared to the saturation in 2015 tests, which was near 100%.
# The major difference between the 2015 tests and the 2016 tests was soil moisture. For the 2015 tests the soil moisture was set at 35% w/w (ca. 100% field capacity). For the 2016 tests, the soil moisture was set at 20% w/w (ca. 66% field capacity).
# Differences in test protocol between 2015 and 2016 tests are summarized below, and colony counts per gram of dry soil for the 2015 tests are shown below.
# 2015: Soil Moisture 35% w/w (ca. 100% field capacity)
# 2016: Decided 2015 soil moisture was too high; reduced to 20% w/w. […]
# Black Dot = experiment: Field test near Moses Lake, Wash.: black dot colonies in soil after shank treatment; set-up: species or system Colletotrichum coccodes; conditions: single sample sites, 4 inches depth; metam 45 gal/acre; LSS 90 gal/acre; metam + LSS 30 + 30 gal/acre
# Procedure: as §1, §2
smiles,measurement,setting,value
"CNC(=S)S [Metam, sodium methyldithiocarbamate]",average CFU Pythium per gram of dry soil,Pythium,60 CFU per gram of dry soil
same,suppression of the Verticillium,Verticillium [1],only modest suppression
same,average Verticillium CFU per gram of dry soil,"Verticillium [1]; average over rates: LSS 45 and 90 gal/acre, metam sodium 20 and 40 gal/acre, mixture 20 and 40 gal metam with 45 gal LSS, untreated 41",30 CFU per gram of dry soil
same,averaged colonies of V. dahlia per gram of soil at four inches,V. dahliae; mixture 92 + 127 pounds/acre,30 colonies per gram of soil
same,averaged colonies of V. dahlia per gram of soil at eight inches,V. dahliae; mixture 92 + 127 pounds/acre (8 inch samples called suspect),3 colonies per gram of soil
same,"Microsclerotia (Verticillium) per gram of soil, ms/g, 2015",Verticillium [2],3 ms/g
same,"Black Dot, 4″",Black Dot,0 colonies per gram of soil
